Data reported in PubChem BioAssay (NCI).
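Growth conditions: 96-well plates. Treatment: test compound, 48 hours, 5 concentrations. Analysis: linear interpolation between bracketing concentrations; unreached endpoints set to highest concentration. TGI: total growth inhibition.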

Tests used:
Experiment in all cases: NCI anticancer screen, dose series, 48 h
786-0 renal = system: 786-0 renal
A549 NSCLC = system: A549 NSCLC
ACHN renal = system: ACHN renal
CAKI-1 renal = system: CAKI-1 renal
CCRF-CEM leukemia = system: CCRF-CEM leukemia
COLO 205 colon = system: COLO 205 colon
DLD-1 colon = system: DLD-1 colon
DMS 114 small cell lung = system: DMS 114 small cell lung
DMS 273 small cell lung = system: DMS 273 small cell lung
EKVX NSCLC = system: EKVX NSCLC
HCC-2998 colon = system: HCC-2998 colon
HCT-116 colon = system: HCT-116 colon
HCT-15 colon = system: HCT-15 colon
HL-60(TB) leukemia = system: HL-60(TB) leukemia
HOP-62 NSCLC = system: HOP-62 NSCLC
HOP-92 NSCLC = system: HOP-92 NSCLC
HT29 colon = system: HT29 colon
IGROV1 ovarian = system: IGROV1 ovarian
K-562 leukemia = system: K-562 leukemia
KM12 colon = system: KM12 colon
KM20L2 colon = system: KM20L2 colon
LOX IMVI melanoma = system: LOX IMVI melanoma
LXFL 529 NSCLC = system: LXFL 529 NSCLC
M14 melanoma = system: M14 melanoma
M19-MEL melanoma = system: M19-MEL melanoma
MALME-3M melanoma = system: MALME-3M melanoma
MOLT-4 leukemia = system: MOLT-4 leukemia
NCI-H226 lung = system: NCI-H226 lung
NCI-H460 lung = system: NCI-H460 lung
OVCAR-3 ovarian = system: OVCAR-3 ovarian
OVCAR-4 ovarian = system: OVCAR-4 ovarian
OVCAR-5 ovarian = system: OVCAR-5 ovarian
OVCAR-8 ovarian = system: OVCAR-8 ovarian
RPMI-8226 leukemia = system: RPMI-8226 leukemia
RXF 393 renal = system: RXF 393 renal
SF-295 CNS = system: SF-295 CNS
SK-MEL-2 melanoma = system: SK-MEL-2 melanoma
SK-MEL-28 melanoma = system: SK-MEL-28 melanoma
SK-MEL-5 melanoma = system: SK-MEL-5 melanoma
SK-OV-3 ovarian = system: SK-OV-3 ovarian
SN12C renal = system: SN12C renal
SNB-19 CNS = system: SNB-19 CNS
SNB-75 CNS = system: SNB-75 CNS
SW-620 colon = system: SW-620 colon
TK-10 renal = system: TK-10 renal
U251 CNS = system: U251 CNS
UACC-257 melanoma = system: UACC-257 melanoma
UACC-62 melanoma = system: UACC-62 melanoma
UO-31 renal = system: UO-31 renal
XF 498 CNS = system: XF 498 CNS
A498 renal = system: A498 renal
HOP-18 NSCLC = system: HOP-18 NSCLC
NCI-H23 lung = system: NCI-H23 lung
NCI-H522 lung = system: NCI-H522 lung
SF-268 CNS = system: SF-268 CNS
SF-539 CNS = system: SF-539 CNS
SR leukemia = system: SR leukemia

CC(C)(C)C(=O)Nc1ccccc1Br
TGI (786-0 renal): > 100 µM | TGI (A549 NSCLC): > 100 µM | TGI (ACHN renal): > 100 µM | TGI (CAKI-1 renal): > 100 µM | TGI (CCRF-CEM leukemia): > 100 µM | TGI (COLO 205 colon): > 100 µM | TGI (DLD-1 colon): > 100 µM | TGI (DMS 114 small cell lung): > 100 µM | TGI (DMS 273 small cell lung): > 100 µM | TGI (EKVX NSCLC): > 100 µM | TGI (HCC-2998 colon): > 100 µM | TGI (HCT-116 colon): > 100 µM | TGI (HCT-15 colon): > 100 µM | TGI (HL-60(TB) leukemia): > 100 µM | TGI (HOP-62 NSCLC): > 100 µM | TGI (HOP-92 NSCLC): > 100 µM | TGI (HT29 colon): > 100 µM | TGI (IGROV1 ovarian): > 100 µM | TGI (K-562 leukemia): > 100 µM | TGI (KM12 colon): > 100 µM | TGI (KM20L2 colon): > 100 µM | TGI (LOX IMVI melanoma): > 100 µM | TGI (LXFL 529 NSCLC): > 100 µM | TGI (M14 melanoma): > 100 µM | TGI (M19-MEL melanoma): > 100 µM | TGI (MALME-3M melanoma): > 100 µM | TGI (MOLT-4 leukemia): > 100 µM | TGI (NCI-H226 lung): > 100 µM | TGI (NCI-H460 lung): > 100 µM | TGI (OVCAR-3 ovarian): > 100 µM | TGI (OVCAR-4 ovarian): > 100 µM | TGI (OVCAR-5 ovarian): > 100 µM | TGI (OVCAR-8 ovarian): > 100 µM | TGI (RPMI-8226 leukemia): > 100 µM | TGI (RXF 393 renal): > 100 µM | TGI (SF-295 CNS): > 100 µM | TGI (SK-MEL-2 melanoma): > 100 µM | TGI (SK-MEL-28 melanoma): > 100 µM | TGI (SK-MEL-5 melanoma): > 100 µM | TGI (SK-OV-3 ovarian): > 100 µM | TGI (SN12C renal): > 100 µM | TGI (SNB-19 CNS): > 100 µM | TGI (SNB-75 CNS): > 100 µM | TGI (SW-620 colon): > 100 µM | TGI (TK-10 renal): > 100 µM | TGI (U251 CNS): > 100 µM | TGI (UACC-257 melanoma): > 100 µM | TGI (UACC-62 melanoma): > 100 µM | TGI (UO-31 renal): > 100 µM | TGI (XF 498 CNS): > 100 µM

COC1=C(OC)C(=O)c2cc(SC)c(=O)c(SC)cc2C1=O
TGI (786-0 renal): 35.2 µM | TGI (A498 renal): 66.3 µM | TGI (A549 NSCLC): 43.8 µM | TGI (ACHN renal): 28.9 µM | TGI (CAKI-1 renal): > 100 µM | TGI (CCRF-CEM leukemia): 4.93 µM | TGI (COLO 205 colon): > 100 µM | TGI (DLD-1 colon): > 100 µM | TGI (DMS 114 small cell lung): 13.4 µM | TGI (DMS 273 small cell lung): > 100 µM | TGI (EKVX NSCLC): 48.9 µM | TGI (HCC-2998 colon): > 100 µM | TGI (HCT-116 colon): 46.3 µM | TGI (HCT-15 colon): > 100 µM | TGI (HL-60(TB) leukemia): 3.97 µM | TGI (HOP-18 NSCLC): 82.2 µM | TGI (HOP-62 NSCLC): 31.2 µM | TGI (HOP-92 NSCLC): 48.4 µM | TGI (HT29 colon): > 100 µM | TGI (IGROV1 ovarian): > 100 µM | TGI (K-562 leukemia): 33.3 µM | TGI (KM12 colon): > 100 µM | TGI (KM20L2 colon): > 100 µM | TGI (LOX IMVI melanoma): 16.6 µM | TGI (LXFL 529 NSCLC): 29.5 µM | TGI (M14 melanoma): 32.6 µM | TGI (MOLT-4 leukemia): 17.4 µM | TGI (NCI-H226 lung): 28.4 µM | TGI (NCI-H23 lung): 20.2 µM | TGI (NCI-H460 lung): > 100 µM | TGI (NCI-H522 lung): 34.9 µM | TGI (OVCAR-3 ovarian): 23.4 µM | TGI (OVCAR-4 ovarian): 24.8 µM | TGI (OVCAR-8 ovarian): 50.9 µM | TGI (RPMI-8226 leukemia): 40.2 µM | TGI (RXF 393 renal): 16.8 µM | TGI (SF-268 CNS): 28.3 µM | TGI (SF-295 CNS): 29.2 µM | TGI (SF-539 CNS): 24.8 µM | TGI (SK-MEL-2 melanoma): 15.5 µM | TGI (SK-MEL-28 melanoma): 26.7 µM | TGI (SK-MEL-5 melanoma): 25.9 µM | TGI (SK-OV-3 ovarian): > 100 µM | TGI (SN12C renal): 28.7 µM | TGI (SNB-19 CNS): 60.7 µM | TGI (SNB-75 CNS): 28.1 µM | TGI (SR leukemia): 22.7 µM | TGI (SW-620 colon): > 100 µM | TGI (TK-10 renal): > 100 µM | TGI (U251 CNS): 38.7 µM | TGI (UACC-257 melanoma): 21.6 µM | TGI (UACC-62 melanoma): 4.45 µM | TGI (UO-31 renal): 40.5 µM | TGI (XF 498 CNS): 15.1 µM
